# Experimental data: patent US8263606B2 (Xenon Pharmaceuticals Inc., priority 2008, dated 2012)
# Structures can show the parent of a compound that is named as a salt.
# Legend:
# sodium channel = assay: Guanidine influx assay (14C-guanidine radiotracer flux, in vitro); type: cell-based, human or rat; conditions: guanidine influx assay using a known cell line that expresses a sodium channel
# Outline: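 Cells stably expressing human or rat sodium channels (~100,000/well, 20–24 h) were exposed in low-sodium choline buffer to test agent plus aconitine activator and 14C-guanidine at ambient temperature. Intracellular 14C-guanidine was counted by scintillation; IC50 fitted by 4-parameter logistic over half-dilutions around 1 μM.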
# CYP3A4 = CYP3A4 (Homo sapiens, UniProt P08684); assay: Cytochrome P450 (CYP450) Inhibition Assay, CYP3A4 (Vivid fluorescence, BOMCC substrate); conditions: human, P450 Baculosomes (recombinant CYP3A4), probe BOMCC (Vivid substrate)
# CYP3A4, sequence (P08684 whole entry): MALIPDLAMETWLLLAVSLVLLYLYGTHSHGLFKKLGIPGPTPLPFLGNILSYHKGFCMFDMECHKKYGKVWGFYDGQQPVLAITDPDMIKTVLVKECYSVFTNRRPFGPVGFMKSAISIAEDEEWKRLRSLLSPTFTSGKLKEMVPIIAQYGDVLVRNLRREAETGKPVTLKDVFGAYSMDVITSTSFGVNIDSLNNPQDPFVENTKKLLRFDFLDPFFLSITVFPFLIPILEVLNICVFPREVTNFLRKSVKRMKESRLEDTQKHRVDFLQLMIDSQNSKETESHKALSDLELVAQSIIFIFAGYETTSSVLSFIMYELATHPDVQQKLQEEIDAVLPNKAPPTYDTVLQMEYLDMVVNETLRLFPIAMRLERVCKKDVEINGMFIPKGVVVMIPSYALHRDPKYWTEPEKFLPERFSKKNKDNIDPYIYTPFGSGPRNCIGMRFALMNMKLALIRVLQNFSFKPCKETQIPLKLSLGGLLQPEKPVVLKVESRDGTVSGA
SMILES,melting point,IC50 (sodium channel; activity level class) [nM],inhibition at 10 µM (CYP3A4) [%],IC50 (sodium channel) [nM]
"O=C1Nc2ccccc2C12COc1ccc3c(c12)OCCO3 (centres unmarked) [Example 3.43, 2,3-dihydrospiro[furo[3,2-f][1,4]benzodioxine-9,3′-indol]-2′(1′H)-one]",259 to 261 °C,,,
"O=C1N(C(c2ccccc2)c2ccccc2)c2c(F)cccc2C12COc1cc3c(cc12)CCO3 (centres unmarked) [Example 2.20, 1′-(diphenylmethyl)-7′-fluoro-5,6-dihydrospiro[benzo[1,2-b:5,4-b′]difuran-3,3′-indol]-2′(1′H)-one]",183 to 184 °C,,,
"O=C1N(Cc2ccc(Br)cc2)c2ccccc2C12COc1cc3c(cc12)OCO3 (centres unmarked) [Example 4.1, 1′-(4-bromobenzyl)spiro[furo[2,3-f][1,3]benzodioxole-7,3′-indol]-2′(1′H)-one]",148 to 150 °C,,,
"COc1ccc(CN2C(=O)C3(COc4cc5c(cc43)OCO5)c3ccccc32)cc1 (centres unmarked) [Example 7, 1′-(4-methoxybenzyl)spiro[furo[2,3-f][1,3]benzodioxole-7,3′-indol]-2′(1′H)-one]",147 to 148 °C,,,
"Cc1ccc(F)c2c1N(C(c1ccccc1)c1ccccc1)C(=O)C21COc2cc3c(cc21)CCO3 (centres unmarked) [Example 2.19, 1′-(diphenylmethyl)-4′-fluoro-7′-methyl-5,6-dihydrospiro[benzo[1,2-b:5,4-b′]difuran-3,3′-indol]-2′(1′H)-one]",81 to 82 °C,,,
"O=C1N(Cc2ccc(C(F)(F)F)o2)c2ccccc2C12COc1ccc(Br)cc12 (centres unmarked) [Example 2.23, 5-bromo-1′-((5-(trifluoromethyl)furan-2-yl)methyl)-2H-spiro[benzofuran-3,3′-indolin]-2′-one]",,100 to 1000,> 50,
"COc1cc2c(c(OC)c1)C1(COc3cc4c(cc31)OCCO4)C(=O)N2 (centres unmarked) [Example 3.50, 4′,6′-dimethoxy-2,3-dihydrospiro[furo[2,3-g][1,4]benzodioxine-8,3′-indol]-2′(1′H)-one]",,1000 to 10000,< 50,
"COc1cc2c(cc1C)C1(CO2)C(=O)N(Cc2ccccn2)c2ccccc21 (centres unmarked) [Example 4.62, 6-methoxy-5-methyl-1′-(pyridin-2-ylmethyl)spiro[1-benzofuran-3,3′-indol]-2′(1′H)-one]",,1000 to 10000,> 50,
"O=C1N(Cc2c(F)cccc2C(F)(F)F)c2ccccc2C12COc1cc3c(cc12)OCCO3 (centres unmarked) [Example 7.25, 1′-[(2-fluoro-6-trifluoromethyl)benzyl]-2,3-dihydrospiro[furo[2,3-g][1,4]benzodioxine-8,3′-indol]-2′(1′H)-one]",,1 to 100,< 50,
"CCCCOc1ccc(-c2cccc3c2C2(COc4cc5c(cc42)CCO5)C(=O)N3C[C@H]2CCCO2)cc1 (stereo partly drawn) [Example 16.8, 4′-(4-butoxyphenyl)-1′-[(2R)-tetrahydrofuran-2-ylmethyl]-5,6-dihydrospiro[benzo[1,2-b:5,4-b′]difuran-3,3′-indol]-2′(1′H)-one]",,,< 50,100 to 1000
"O=C1N(Cc2ccccn2)c2ccccc2C12COc1cc(F)c(F)cc12 (centres unmarked) [Example 9.64, 5,6-difluoro-1′-(pyridin-2-ylmethyl)spiro[1-benzofuran-3,3′-indol]-2′(1′H)-one]",,,< 50,100 to 1000
"COCCOCCN1C(=O)C2(COc3cc4onc(C)c4cc32)c2ccccc21 (centres unmarked) [Example 9.54, 1′-[2-(2-methoxyethoxy)ethyl]-3-methylspiro[furo[3,2-f][1,2]benzisoxazole-5,3′-indol]-2′(1′H)-one]",,,< 50,100 to 1000
"O=C1N(C[C@H]2CCCO2)c2c(F)cccc2C12COc1cc3c(cc12)CCO3 (stereo partly drawn) [Example 8.2, 7′-fluoro-1′-[(2R)-tetrahydrofuran-2-ylmethyl]-5,6-dihydrospiro[benzo[1,2-b:5,4-b′]difuran-3,3′-indol]-2′(1′H)-one]",,1 to 100,< 50,
"O=C1N(Cc2ccccn2)c2ccccc2C12COc1cc3c(cc12)OCCC3 (centres unmarked) [Example 5.28, 1′-(pyridin-2-ylmethyl)-7,8-dihydro-6H-spiro-[furo[2,3-g]chromene-3,3′-indol]-2′(1′H)-one]",,1 to 100,> 50,
"COc1ccc2c(c1)OCC21C(=O)N(CC2CCOCC2)c2ccccc21 (centres unmarked) [Example 9.35, 6-methoxy-1′-(tetrahydro-2H-pyran-4-ylmethyl)spiro[1-benzofuran-3,3′-indol]-2′(1′H)-one]",,100 to 1000,> 50,
"O=C1Nc2cccc(Br)c2C12COc1cc3c(cc12)OCCO3 (centres unmarked) [Example 3.32, 4′-bromo-2,3-dihydrospiro[furo[2,3-g][1,4]benzodioxine-8,3′-indol]-2′(1′H)-one]",,100 to 1000,< 50,
O=C1N(Cc2cc(-c3cccnc3)no2)c2ccccc2C12COc1cc3c(cc12)OCCO3 (centres unmarked) [Example 7.14],,1 to 100,> 50,
"O=C1N(Cc2cc(Br)no2)c2ccccc2C12COc1cc3c(cc12)CCO3 (centres unmarked) [Example 4.17, 1-[(3-bromoisoxazol-5-yl)methyl]-5,6-dihydrospiro[benzo[1,2-b:5,4-b′]difuran-3,3′-indol]-2′(1′H)-one]",,1 to 100,> 50,
"O=C1N(Cc2ccc(F)cc2)c2ccccc2C12COc1cc3c(cc12)CCO3 (centres unmarked) [Example 4.13, 1′-(4-fluorobenzyl)-5,6-dihydrospiro[benzo[1,2-b:5,4-b′]difuran-3,3′-indol]-2′(1′H)-one]",,1 to 100,> 50,
"Cn1c(CN2C(=O)C3(COc4cc5c(cc43)CCO5)c3ccccc32)cnc1Cl (centres unmarked) [Example 4.2, 1′-[(2-chloro-1-methyl-1H-imidazol-5-yl)methyl]-5,6-dihydrospiro[benzo[1,2-b:5,4-b′]difuran-3,3′-indol]-2′(1′H)-one]",,1 to 100,> 50,
O=C1N(Cc2cncs2)c2ccccc2C12COc1cc3c(cc12)OCCO3 (centres unmarked) [Example 7.11],,1 to 100,> 50,

# Next, values leading:
melting point,IC50 (sodium channel; activity level class) [nM],inhibition at 10 µM (CYP3A4) [%],IC50 (sodium channel) [nM],SMILES
> 250 °C,,,,"CN1C(=O)C2(COc3cc4c(cc32)OCCO4)c2c(C(N)=O)cccc21 (centres unmarked) [Example 16.72, 1′-methyl-2′-oxo-1′,2,2′,3-tetrahydrospiro[furo[2,3-g][1,4]benzodioxine-8,3′-indole]-4′-carboxamide]"
191 to 195 °C,,,,"Cc1noc2cc3c(cc12)C1(CO3)C(=O)N(Cc2ccc(-c3cc(N)n[nH]3)cc2)c2ccccc21 (centres unmarked) (as salt: hydrochloride) [Example 29.1, 1′-[4-(3-amino-1H-pyrazol-5-yl)benzyl]-3-methylspiro[furo[3,2-f][1,2]benzisoxazole-5,3′-indol]-2′(1′H)-one hydrochloride]"
198 to 201 °C,,,,"Nc1cc(-c2ccc(CN3C(=O)C4(COc5cc6c(cc54)OCCO6)c4ccccc43)cc2)[nH]n1 (centres unmarked) (as salt: hydrochloride) [Example 29.2, 1′-[4-(3-amino-1H-pyrazol-5-yl)benzyl]-2,3-dihydrospiro[furo[2,3-g][1,4]benzodioxine-8,3′-indol]-2′(1′H)-one hydrochloride]"
> 200 °C (dec.),,,,"COc1cc2c(cc1C)[C@]1(CO2)C(=O)N(CN2CCN(C)CC2)c2ccccc21 (as salt: chloride) [Example 11.65, (3R)-6-methoxy-5-methyl-1′-[(4-methylpiperazin-1-yl)methyl]spiro[1-benzofuran-3,3′-indol]-2′(1′H)-one hydrogen chloride]"
> 200 °C (dec.),,,,"COc1cc2c(cc1C)[C@@]1(CO2)C(=O)N(CN2CCN(C)CC2)c2ccccc21 (as salt: chloride) [Example 11.64, (3S)-6-methoxy-5-methyl-1′-[(4-methylpiperazin-1-yl)methyl]spiro[1-benzofuran-3,3′-indol]-2′(1′H)-one hydrogen chloride]"
127 to 128 °C,,,,"CN1C(=O)C2(COc3cc4c(cc32)OCCO4)c2c(C(=O)NC3CC3)cccc21 (centres unmarked) [Example 16.40, N-cyclopropyl-1′-methyl-2′-oxo-1′,2,2′,3-tetrahydrospiro[furo[2,3-g][1,4]benzodioxine-8,3′-indole]-4′-carboxamide]"
,,< 50,100 to 1000,"CN(C)C(=O)c1coc(CN2C(=O)C3(COc4cc5c(cc43)CCO5)c3ccccc32)n1 (centres unmarked) [Example 13.4, N,N-dimethyl-2-[(2′-oxo-5,6-dihydrospiro[benzo[1,2-b:5,4-b′]difuran-3,3′-indol]-1′(2′H)-yl)methyl]-1,3-oxazole-4-carboxamide]"
,,> 50,100 to 1000,"NCCNC(=O)c1cccnc1CN1C(=O)C2(COc3cc4c(cc32)OCCO4)c2ccccc21 (centres unmarked) [Example 12.64, N-(2-aminoethyl)-2-[(2′-oxo-2,3-dihydrospiro[furo[2,3-g][1,4]benzodioxine-8,3′-indol]-1′(2′H)-yl)methyl]pyridine-3-carboxamide dihydrochloride]"
,,> 50,1000 to 10000,"O=C1N(Cc2ccc(N[C@@H]3CCNC3)cc2)c2ccccc2C12COc1cc(F)c(F)cc12 (stereo partly drawn) [Example 33.2, 5,6-difluoro-1′-{4-[(3R)-pyrrolidin-3-ylamino]benzyl}spiro[1-benzofuran-3,3′-indol]-2′(1′H)-one hydrochloride]"
,,> 50,100 to 1000,"CNC(=O)c1ccc(CN2C(=O)C3(COc4cc5c(cc43)CCO5)c3ccccc32)o1 (centres unmarked) [Example 13.2, N-methyl-5-[(2′-oxo-5,6-dihydrospiro[benzo[1,2-b:5,4-b′]difuran-3,3′-indol]-1′(2′H)-yl)methyl]furan-2-carboxamide]"
,,> 50,100 to 1000,"CS(=O)(=O)Nc1cccc(CN2C(=O)C3(COc4cc5c(cc43)OCCO5)c3ccccc32)c1 (centres unmarked) [Example 11.94, N-{3-[(2′-oxo-2,3-dihydrospiro[furo[2,3-g][1,4]benzodioxine-8,3′-indol]-1′(2′H)-yl)methyl]phenyl}methanesulfonamide]"
